Data taken from paper PMC4871228 (European journal of medicinal chemistry, 2015).
Read-outs that look alike come from different tables or passages of the source.

Legend:
KAT8 [1] = biological target: T1, KAT8 (Homo sapiens, UniProt Q9H7Z6); test: Steady-state enzyme kinetics of KAT8 substrates; format: biochemical; details: for Km: read-out: Km of Ac-CoA
T1 sequence (Q9H7Z6 1-458): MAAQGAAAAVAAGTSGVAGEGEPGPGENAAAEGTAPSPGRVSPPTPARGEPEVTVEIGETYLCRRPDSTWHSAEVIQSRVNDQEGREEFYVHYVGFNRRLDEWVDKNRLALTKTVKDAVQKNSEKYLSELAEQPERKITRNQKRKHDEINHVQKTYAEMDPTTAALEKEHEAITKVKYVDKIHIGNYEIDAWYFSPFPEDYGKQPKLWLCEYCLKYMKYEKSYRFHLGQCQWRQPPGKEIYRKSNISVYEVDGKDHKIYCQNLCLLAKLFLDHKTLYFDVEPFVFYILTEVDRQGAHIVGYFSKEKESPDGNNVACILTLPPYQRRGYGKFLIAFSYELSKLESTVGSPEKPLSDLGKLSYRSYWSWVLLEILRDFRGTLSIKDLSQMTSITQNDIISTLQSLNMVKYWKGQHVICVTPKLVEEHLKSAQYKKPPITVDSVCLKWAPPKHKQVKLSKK

KAT8 [2] = biological target: T1, KAT8; test: Isothermal titration calorimetry, titration to KAT8; format: binding; details: ITC, Ac-CoA vs KAT8
KAT8 [3] = biological target: T1, KAT8; test: KAT8 inhibition, fluorescence-based assay detecting CoA with CPM; format: biochemical; details: within the investigated range of concentrations (up to 400 µM)

## CC(=O)SCCNC(=O)CCNC(=O)[C@H](O)C(C)(C)COP(=O)(O)OP(=O)(O)OC[C@H]1O[C@@H](n2cnc3c(N)ncnc32)[C@H](O)[C@@H]1OP(=O)(O)O [Ac-CoA, acetyl coenzyme A]
KAT8 [1]; 15 µM histone H4 peptide
  Vmax of Ac-CoA: 3.4 ± 0.2 pmol/min
  kcat of Ac-CoA: 0.0033 ± 0.00033 s⁻¹
  Km: 1.1 ± 0.3 µM
KAT8 [1]; 30 µM histone H4 peptide
  Vmax of Ac-CoA: 4.5 ± 0.3 pmol/min
  kcat of Ac-CoA: 0.005 ± 0.00033 s⁻¹
  Km: 1.2 ± 0.3 µM
KAT8 [1]; 60 µM histone H4 peptide
  Vmax of Ac-CoA: 9.9 ± 0.3 pmol/min
  kcat of Ac-CoA: 0.012 ± 0.00067 s⁻¹
  Km: 2.1 ± 0.3 µM
KAT8 [1]; 90 µM histone H4 peptide
  Vmax of Ac-CoA: 14.7 ± 0.6 pmol/min
  kcat of Ac-CoA: 0.0183 ± 0.001 s⁻¹
  Km: 2.8 ± 0.5 µM
KAT8 [2]
  -TΔS: −17228 cal/mol/degK
  Kd: 8.7 ± 1.2 µM
  N (stoichiometry): 0.95
  ΔG: −6758
  ΔH: 10.47 ± 0.47 kcal/mol

## O=C(O)c1c(O)cccc1CCCCCCCCCCCO [Compound 8b]
KAT8 [3]
  KAT8 inhibitory potency (in words): loss of potency

## CCCCCc1ccc(O)c(C(=O)O)c1 [Compound 11c]
KAT8 [3]
  KAT8 inhibitory potency (in words): completely lose their affinity

## CCCCCCCSCC(=O)c1ccccc1O [Compound 13]
KAT8 [3]
  KAT8 inhibitory potency (in words): completely removed activity

## CCCCCc1cccc(O)c1C(=O)O [Compound 14]
KAT8 [3]
  KAT8 inhibitory potency (in words): completely lose their affinity
